Where two headings read alike, the source gives them in different places.
Legend:
[1] = target: CYP1A2 (Homo sapiens, UniProt P05177); experiment: In vitro CYP inhibition; assay type: in vitro ADME; settings: clinically relevant concentrations
[2] = target: P-gp (Homo sapiens, UniProt P08183); experiment: Transporter inhibition; assay type: in vitro ADME; settings: clinically relevant concentrations
[3] = target: UGT1A1 (Homo sapiens, UniProt P22309); experiment: Enzyme inhibition; assay type: in vitro ADME; settings: clinically relevant concentrations
Chain of UGT1A1 (P22309 26-533): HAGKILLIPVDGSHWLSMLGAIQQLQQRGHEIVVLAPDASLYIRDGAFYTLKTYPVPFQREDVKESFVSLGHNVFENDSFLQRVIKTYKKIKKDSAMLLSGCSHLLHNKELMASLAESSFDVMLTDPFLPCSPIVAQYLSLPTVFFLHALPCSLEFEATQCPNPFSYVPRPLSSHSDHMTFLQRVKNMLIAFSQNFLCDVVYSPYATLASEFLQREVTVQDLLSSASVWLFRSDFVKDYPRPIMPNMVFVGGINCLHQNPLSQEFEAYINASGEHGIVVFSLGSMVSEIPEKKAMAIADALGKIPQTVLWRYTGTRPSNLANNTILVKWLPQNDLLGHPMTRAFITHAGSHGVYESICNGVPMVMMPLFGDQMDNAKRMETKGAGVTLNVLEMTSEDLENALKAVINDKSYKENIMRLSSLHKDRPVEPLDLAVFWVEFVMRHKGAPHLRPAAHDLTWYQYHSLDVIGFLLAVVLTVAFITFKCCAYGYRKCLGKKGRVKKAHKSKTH

[4] = test system: CYP3A4; experiment: CYP induction; assay type: in vitro ADME; settings: clinically relevant concentrations
[5] = Atogepant-quinidine gluconate interaction study: safety; assay type: in vivo, human; settings: atogepant 60 mg alone or with quinidine gluconate
Description: Atogepant PK parameters calculated were peak plasma concentration (Cmax); time to Cmax (tmax); and area under plasma concentration—time curve from time 0 to time t (AUC0-t) and infinity (AUC0-∞). […] Safety assessments included clinical laboratory values, vital signs, electrocardiograms, and […] adverse events (TEAEs).

[6] = Hepatic impairment study: safety and tolerability; assay type: in vivo, human; settings: single 60 mg dose, all hepatic function groups
Description: A multicenter, non-randomized, open-label, parallel-group, single-dose study was carried out to evaluate the PK, safety, and tolerability profiles of atogepant in participants with impaired hepatic function and matched healthy participants with normal hepatic function after a single 60-mg oral dose of atogepant. The primary outcome measures were PK parameters of atogepant derived from plasma concentrations. Safety measures were AEs, clinical laboratory determinations, vital sign parameters, electrocardiographic results, and physical examination findings.

[7] = target: CYP2B6 (Homo sapiens, UniProt P20813); experiment: In vitro CYP inhibition; assay type: in vitro ADME; settings: clinically relevant concentrations
[8] = target: NTCP (Homo sapiens, UniProt Q14973); experiment: Transporter inhibition; assay type: in vitro ADME; settings: clinically relevant concentrations
Chain of NTCP (Q14973 whole entry): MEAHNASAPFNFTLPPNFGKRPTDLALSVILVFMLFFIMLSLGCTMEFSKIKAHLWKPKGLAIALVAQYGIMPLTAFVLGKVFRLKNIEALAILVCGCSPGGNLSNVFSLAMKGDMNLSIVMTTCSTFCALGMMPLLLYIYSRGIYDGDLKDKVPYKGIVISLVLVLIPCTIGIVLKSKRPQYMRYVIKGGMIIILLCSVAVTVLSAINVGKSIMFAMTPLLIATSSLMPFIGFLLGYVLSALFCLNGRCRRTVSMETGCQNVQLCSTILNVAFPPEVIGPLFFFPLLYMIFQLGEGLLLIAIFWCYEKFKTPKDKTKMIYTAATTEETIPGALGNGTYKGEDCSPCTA

[9] = Food effect study (high-fat meal), atogepant IR tablet: plasma PK; assay type: in vivo, human; settings: for AUC(0-inf) / AUC(0-t) / Cmax / Tmax / Vd/F: both sexes, human, plasma, oral, 60 mg; for Vd/F: read-out: Vz/F
Description: A single-center, randomized, open-label, single-dose, 2-period cross-over study was conducted to evaluate the effect of a high-fat meal on the systemic exposure of atogepant following single-dose administration of an immediate release (IR) tablet in healthy adult participants. Secondary objectives were to evaluate the secondary PK parameters of atogepant following single-dose administration of an IR tablet formulation of atogepant in healthy participants under fasted and fed conditions; and to evaluate the safety and tolerability profiles of single-dose atogepant in healthy adult participants under fed and fasted conditions. […] Plasma samples were collected pre-dose and at predetermined time intervals up to 48 hours after dosing. Atogepant plasma concentrations were determined using a validated LC-MS/MS assay and the pharmacokinetic (PK) parameters were calculated using WinNonlin. A linear mixed-effects model with sequence, study intervention, and period as fixed effects, and participant nested within sequence as a random effect was used to compare the natural logarithm transformed values of atogepant PK parameters AUC0-t, AUC0-inf, and Cmax. Safety was monitored via ECGs, vital signs, clinical labs, and adverse events. […] Screening occurred within 21 days before dosing (Days −21 to −1). The study intervention period was scheduled for a total of 11 days (Days −1 to 10), and the follow-up visit occurred with serum chemistry on day 38 (±3), (30 [±3] days after the last dose on Day 8). PK blood samples for analysis of plasma atogepant concentrations were collected starting on Days 1 (period 1) and 8 (period 2); at 0 hour (predose) and 0.5, 1, 1.5, 2, 3, 4, 6, 8, 12, 16, 24, 36, and 48 hours postdose. • Linear mixed effects model with natural logarithm-transformed values of AUC0-t, AUC0-inf, and Cmax, as the dependent variable and terms for study intervention, sequence, and period as fixed independent variables and participant nested in sequence as a random effect.

[10] = target: MRP4 (Homo sapiens, UniProt O15439); experiment: Transporter inhibition; assay type: in vitro ADME; settings: clinically relevant concentrations
Chain of MRP4 (O15439 whole entry): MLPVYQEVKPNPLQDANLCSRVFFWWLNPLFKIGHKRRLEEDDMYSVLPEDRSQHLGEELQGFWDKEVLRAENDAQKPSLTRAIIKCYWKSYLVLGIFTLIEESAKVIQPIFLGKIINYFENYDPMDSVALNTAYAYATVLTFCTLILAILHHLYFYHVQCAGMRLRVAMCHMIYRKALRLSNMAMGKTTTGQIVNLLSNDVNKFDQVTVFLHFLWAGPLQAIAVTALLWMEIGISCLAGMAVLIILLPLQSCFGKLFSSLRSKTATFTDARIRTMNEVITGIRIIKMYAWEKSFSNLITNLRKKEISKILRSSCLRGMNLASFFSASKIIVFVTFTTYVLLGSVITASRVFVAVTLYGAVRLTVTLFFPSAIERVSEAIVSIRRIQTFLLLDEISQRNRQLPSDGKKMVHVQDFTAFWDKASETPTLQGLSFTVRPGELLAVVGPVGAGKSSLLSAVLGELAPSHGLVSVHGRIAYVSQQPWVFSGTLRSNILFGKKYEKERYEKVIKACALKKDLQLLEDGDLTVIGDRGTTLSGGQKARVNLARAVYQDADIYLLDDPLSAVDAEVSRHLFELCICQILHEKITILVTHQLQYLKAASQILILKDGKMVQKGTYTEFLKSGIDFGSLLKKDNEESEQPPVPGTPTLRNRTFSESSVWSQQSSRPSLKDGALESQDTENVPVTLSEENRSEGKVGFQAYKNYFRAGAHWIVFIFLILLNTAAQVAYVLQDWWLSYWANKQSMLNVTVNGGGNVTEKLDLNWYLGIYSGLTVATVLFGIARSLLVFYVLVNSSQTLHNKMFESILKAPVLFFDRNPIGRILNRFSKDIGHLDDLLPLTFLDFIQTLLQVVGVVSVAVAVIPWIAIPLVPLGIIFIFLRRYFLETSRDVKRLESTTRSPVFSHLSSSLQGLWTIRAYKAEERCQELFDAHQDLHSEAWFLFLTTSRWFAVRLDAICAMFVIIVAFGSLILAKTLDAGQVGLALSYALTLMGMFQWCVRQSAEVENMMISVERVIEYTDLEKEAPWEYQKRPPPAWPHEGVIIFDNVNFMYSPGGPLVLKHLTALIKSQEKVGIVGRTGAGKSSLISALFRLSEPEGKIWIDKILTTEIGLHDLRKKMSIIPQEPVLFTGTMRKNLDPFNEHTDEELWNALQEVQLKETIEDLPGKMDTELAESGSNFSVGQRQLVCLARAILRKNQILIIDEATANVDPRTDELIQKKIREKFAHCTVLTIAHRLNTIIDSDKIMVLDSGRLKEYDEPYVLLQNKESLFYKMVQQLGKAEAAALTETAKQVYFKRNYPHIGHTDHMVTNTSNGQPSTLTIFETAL

[11] = test system: CYP2B6; experiment: CYP induction; assay type: in vitro ADME; settings: clinically relevant concentrations
[12] = target: OCT1 (Homo sapiens, UniProt O15245); experiment: Transporter inhibition; assay type: in vitro ADME
[13] = target: OATP1B3 (Homo sapiens, UniProt Q9NPD5); experiment: Transporter inhibition; assay type: in vitro ADME
Chain of OATP1B3 (Q9NPD5 whole entry): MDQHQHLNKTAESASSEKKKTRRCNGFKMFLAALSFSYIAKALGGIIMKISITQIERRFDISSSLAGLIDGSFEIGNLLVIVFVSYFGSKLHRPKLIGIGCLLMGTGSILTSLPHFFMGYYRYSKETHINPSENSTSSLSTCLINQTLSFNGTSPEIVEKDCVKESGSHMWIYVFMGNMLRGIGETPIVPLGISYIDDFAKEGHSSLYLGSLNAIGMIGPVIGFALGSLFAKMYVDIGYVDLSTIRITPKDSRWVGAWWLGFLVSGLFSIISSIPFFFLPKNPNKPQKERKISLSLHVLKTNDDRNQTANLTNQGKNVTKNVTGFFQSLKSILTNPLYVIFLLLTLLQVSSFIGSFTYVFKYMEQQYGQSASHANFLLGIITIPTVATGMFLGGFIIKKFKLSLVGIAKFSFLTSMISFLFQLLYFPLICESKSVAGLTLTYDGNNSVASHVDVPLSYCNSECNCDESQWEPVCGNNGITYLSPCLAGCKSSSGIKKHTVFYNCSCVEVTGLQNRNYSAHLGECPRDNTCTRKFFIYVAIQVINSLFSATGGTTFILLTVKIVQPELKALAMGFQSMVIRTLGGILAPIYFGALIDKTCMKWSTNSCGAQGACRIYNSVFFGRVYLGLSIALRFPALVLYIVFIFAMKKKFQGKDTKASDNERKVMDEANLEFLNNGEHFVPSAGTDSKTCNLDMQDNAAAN

[14] = All participants (N = 32), Treatments A, B1, B2
[15] = Treatment A: atogepant 60 mg alone (N = 32)
[16] = Treatment B1: atogepant 60 mg + rifampin 600 mg Day 7, rifampin Days 8-11 (N = 31)
[17] = Treatment B2: atogepant 60 mg + rifampin 600 mg Day 12, rifampin Day 13 (N = 31)
[18] = after Treatment B1 (atogepant + rifampin)
[19] = during the study, all treatments
[20] = Study Intervention A: 1 × 60 mg IR tablet, fed
[21] = Study Intervention B: 1 × 60 mg IR tablet, fasted
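For Deaths in this document: safety population of participants given at least one dose, adverse events recorded through clinical assessment across the whole study.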
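For TEAE leading to treatment discontinuation in this document: safety population of participants given at least one dose, adverse events recorded through clinical assessment across the whole study.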
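For Treatment-Emergent Serious Adverse Events (TESAE) in this document: safety population of participants given at least one dose, adverse events recorded through clinical assessment across the whole study.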
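For Treatment-emergent adverse events (TEAE) in this document: safety population of participants given at least one dose, adverse events recorded through clinical assessment across the whole study.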

Chain of P-gp (P08183 whole entry): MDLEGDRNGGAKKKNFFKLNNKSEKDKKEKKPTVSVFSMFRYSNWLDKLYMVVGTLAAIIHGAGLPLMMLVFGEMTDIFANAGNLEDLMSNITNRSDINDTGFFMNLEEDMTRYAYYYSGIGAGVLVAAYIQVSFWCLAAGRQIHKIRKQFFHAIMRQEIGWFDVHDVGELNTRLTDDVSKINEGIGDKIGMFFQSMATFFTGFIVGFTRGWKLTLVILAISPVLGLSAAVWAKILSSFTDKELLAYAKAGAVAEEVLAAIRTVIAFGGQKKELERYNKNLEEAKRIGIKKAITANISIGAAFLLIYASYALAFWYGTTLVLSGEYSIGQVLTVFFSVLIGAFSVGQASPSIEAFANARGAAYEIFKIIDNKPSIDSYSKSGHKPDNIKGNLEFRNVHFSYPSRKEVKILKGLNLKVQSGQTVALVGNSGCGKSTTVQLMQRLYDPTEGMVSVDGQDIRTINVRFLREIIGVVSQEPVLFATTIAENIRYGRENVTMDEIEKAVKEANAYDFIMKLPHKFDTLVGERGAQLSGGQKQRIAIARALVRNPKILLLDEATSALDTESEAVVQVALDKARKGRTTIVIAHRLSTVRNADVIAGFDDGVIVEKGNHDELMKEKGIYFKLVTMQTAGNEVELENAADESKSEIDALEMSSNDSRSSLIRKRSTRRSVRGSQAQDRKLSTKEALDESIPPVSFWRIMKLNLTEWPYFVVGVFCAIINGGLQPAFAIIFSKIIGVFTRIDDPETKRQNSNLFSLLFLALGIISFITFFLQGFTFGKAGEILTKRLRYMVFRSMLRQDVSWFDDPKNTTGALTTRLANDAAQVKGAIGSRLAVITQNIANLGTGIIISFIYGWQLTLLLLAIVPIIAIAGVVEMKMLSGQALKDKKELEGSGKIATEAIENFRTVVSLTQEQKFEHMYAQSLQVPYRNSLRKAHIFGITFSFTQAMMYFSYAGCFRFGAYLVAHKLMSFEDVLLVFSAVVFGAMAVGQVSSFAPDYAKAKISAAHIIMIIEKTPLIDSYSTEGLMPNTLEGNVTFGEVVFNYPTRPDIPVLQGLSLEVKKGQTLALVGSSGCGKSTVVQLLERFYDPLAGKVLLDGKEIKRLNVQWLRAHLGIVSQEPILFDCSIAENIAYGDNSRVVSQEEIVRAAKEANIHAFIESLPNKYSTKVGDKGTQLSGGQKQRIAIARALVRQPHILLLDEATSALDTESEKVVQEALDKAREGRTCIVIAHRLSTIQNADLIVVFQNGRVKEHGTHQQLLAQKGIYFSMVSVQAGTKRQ
Chain of CYP1A2 (P05177 whole entry): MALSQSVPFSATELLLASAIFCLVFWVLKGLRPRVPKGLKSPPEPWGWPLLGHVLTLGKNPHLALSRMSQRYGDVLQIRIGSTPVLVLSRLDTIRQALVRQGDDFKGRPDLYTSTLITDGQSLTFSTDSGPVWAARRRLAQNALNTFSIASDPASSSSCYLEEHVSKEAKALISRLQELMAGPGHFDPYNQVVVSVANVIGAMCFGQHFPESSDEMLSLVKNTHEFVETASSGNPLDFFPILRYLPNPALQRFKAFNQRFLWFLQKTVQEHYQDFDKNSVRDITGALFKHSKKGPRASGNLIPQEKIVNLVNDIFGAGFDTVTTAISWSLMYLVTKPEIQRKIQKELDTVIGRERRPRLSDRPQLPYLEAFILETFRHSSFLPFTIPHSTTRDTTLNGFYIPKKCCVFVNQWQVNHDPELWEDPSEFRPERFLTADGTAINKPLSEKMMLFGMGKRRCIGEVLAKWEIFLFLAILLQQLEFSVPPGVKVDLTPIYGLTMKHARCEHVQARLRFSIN

## C[C@@H]1[C@H](c2c(F)ccc(F)c2F)C[C@H](NC(=O)c2cnc3c(c2)C[C@@]2(C3)C(=O)Nc3ncccc32)C(=O)N1CC(F)(F)F [atogepant, (3′S)-N-[(3S,5S,6R)-6-methyl-2-oxo-1-(2,2,2-trifluoroethyl)-5-(2,3,6-trifluorophenyl)piperidin-3-yl]-2′-oxo-1′,2′,5,7-tetrahydrospiro[cyclopenta[b]pyridine-6,3′-pyrrolo[2,3-b]pyridine]-3-carboxamide]
[1]
  inhibition of CYP1A2: not an inhibitor
[2]
  inhibition of P-gp: not an inhibitor
[3]
  inhibition of UGT1A1: does not inhibit
[4]
  induction of CYP3A4: not an inducer
[5]
  safety and tolerability: safe and well tolerated
[6]
  tolerability: well tolerated
[7]
  inhibition of CYP2B6: not an inhibitor
[8]
  inhibition of NTCP: not an inhibitor
[14]
  Deaths: 0 n (%)
  TEAE leading to treatment discontinuation: 0 n (%)
  Treatment-Emergent Serious Adverse Events (TESAE): 0 n (%)
  Treatment-emergent adverse events (TEAE): 11 (34.4) n (%)
[15]
  Deaths: 0 n (%)
  TEAE leading to treatment discontinuation: 0 n (%)
  Treatment-Emergent Serious Adverse Events (TESAE): 0 n (%)
  Treatment-emergent adverse events (TEAE): 0 n (%)
[16]
  Deaths: 0 n (%)
  TEAE leading to treatment discontinuation: 0 n (%)
  Treatment-Emergent Serious Adverse Events (TESAE): 0 n (%)
  Treatment-emergent adverse events (TEAE): 8 (25.8) n (%)
[17]
  Deaths: 0 n (%)
  TEAE leading to treatment discontinuation: 0 n (%)
  Treatment-Emergent Serious Adverse Events (TESAE): 0 n (%)
  Treatment-emergent adverse events (TEAE): 5 (16.1) n (%)
[18]
  participants with at least one treatment-related TEAE: 12.9%
  participants with headache (most common TEAE): 6.5%
After Treatment B2 (atogepant + rifampin)
  participants with at least one treatment-related TEAE: 6.5%
Atogepant alone or with rifampin
  changes in clinical laboratory test results, vital signs, ECG findings: no notable changes from baseline
Atogepant and rifampin, healthy participants
  tolerability: well tolerated
[19]
  participants with at least one treatment-related TEAE: 15.6%
  participants with mild TEAEs: 31.3%
During the study, after Treatment B1
  participants with moderate TEAEs: 3.1%
During the study, one after B1, one after B2
  participants with treatment-related nausea: 6.3%
[9]; [20]
  CL/F: 26.10 L/h
  Tlag (median): 0 h
  tt/2: 9.41 h
  λz: 0.0840 h⁻¹
  Vd/F: 368 L
[9]; [21]
  CL/F: 21.03 L/h
  Tlag (median): 0 h
  tt/2: 9.71 h
  λz: 0.0799 h⁻¹
  Vd/F: 299 L
[9]; Fasted (Ref), read-out: AUC0-inf GLSM
  AUC(0-inf): 3160 ng·h/mL
[9]; Fasted (Ref), read-out: AUC0-t GLSM
  AUC(0-t): 3130 ng·h/mL
[9]; Fasted (Ref), read-out: Cmax GLSM
  Cmax: 677 ng/mL
[9]; Fasted (ref), read-out: Tmax Median
  Tmax: 2.01 h
[9]; Fed (Test), read-out: AUC0-inf GLSM
  AUC(0-inf): 2610 ng·h/mL
[9]; Fed (Test), read-out: AUC0-t GLSM
  AUC(0-t): 2560 ng·h/mL
[9]; Fed (Test), read-out: Cmax GLSM
  Cmax: 527 ng/mL
[9]; Fed (Test), read-out: Tmax Median
  Tmax: 2.01 h
[9]; Study Intervention A: 1 × 60 mg IR tablet, fed, read-out: AUC0-inf
  AUC(0-inf): 3200 ng·h/mL
[9]; Study Intervention A: 1 × 60 mg IR tablet, fed, read-out: AUC0-t
  AUC(0-t): 3090 ng·h/mL
[9]; Study Intervention A: 1 × 60 mg IR tablet, fed, read-out: Cmax
  Cmax: 594 ng/mL
[9]; Study Intervention A: 1 × 60 mg IR tablet, fed, read-out: Tmax (median)
  Tmax: 2.01 h
[9]; Study Intervention B: 1 × 60 mg IR tablet, fasted, read-out: AUC0-inf
  AUC(0-inf): 3490 ng·h/mL
[9]; Study Intervention B: 1 × 60 mg IR tablet, fasted, read-out: AUC0-t
  AUC(0-t): 3460 ng·h/mL
[9]; Study Intervention B: 1 × 60 mg IR tablet, fasted, read-out: Cmax
  Cmax: 732 ng/mL
[9]; Study Intervention B: 1 × 60 mg IR tablet, fasted, read-out: Tmax (median)
  Tmax: 2.01 h
[9]; fed vs fasted, read-out: Tmax Median of Paired Differences (Test Minus Reference)
  Tmax: 0.5 h
[9]; fed vs fasted
  AUC0-inf Ratio of GLSMs Test/Ref: 82.53%
  AUC0-t Ratio of GLSMs Test/Ref: 81.70%
  Cmax Ratio of GLSMs Test/Ref: 77.90%
[9]; high-fat meal
  effect on median time to maximum atogepant plasma concentration: no effect
[9]; high-fat meal (fed) vs fasted
  reduction of AUC: approximately 18%
[10]
  inhibition of MRP4: not an inhibitor
[11]
  induction of CYP2B6: not an inducer
[12]
  inhibition of OCT1: weak inhibitor
[13]
  inhibition of OATP1B3: weak inhibitor

Reference: patent US12350259B2, “Methods of treating migraine” (Allergan Pharmaceuticals International Limited, priority 2021, dated 2025)
